According to patent US7294638B2, “Treatment of ADHD” (H. Lundbeck A/S, priority 2001, dated 2007):

Experiments:
DAT knock-out (KO) mice [1] = conditions: Gainetdinov et al. Science 1999; cited from earlier work
[2] = clinical; Barrickman et al. 1991; cited from earlier work
DAT knock-out (KO) mice [3] = test: DAT-KO mice model of ADHD (hyperactivity); assay type: in vivo; conditions: animal model of ADHD
Source text: A very useful animal model of ADHD is the DAT knock-out (KO) mice (Gainetdinov et al. Science 1999, 283, 397-401).
The compound, (S)-(+)-3-[1-[2-(1-acetyl-2,3-dihydro-1H-indol-3-yl)ethyl]-1,2,3,6-tetrahydropyridin-4-yl]-6-chloro-1H-indole, has been tested in the DAT-KO mice, an animal model which have many behaviour patterns and responses to psychostimulants in common with individuals with ADHD (Gainetdinov et al. Science 1999, 283, 397-401).

dopamine D4 receptors = biological target: T1, dopamine D4 receptors (Homo sapiens, UniProt P21917); conditions: data in WO 98/28293; cited from earlier work
T1 sequence (P21917 1-419): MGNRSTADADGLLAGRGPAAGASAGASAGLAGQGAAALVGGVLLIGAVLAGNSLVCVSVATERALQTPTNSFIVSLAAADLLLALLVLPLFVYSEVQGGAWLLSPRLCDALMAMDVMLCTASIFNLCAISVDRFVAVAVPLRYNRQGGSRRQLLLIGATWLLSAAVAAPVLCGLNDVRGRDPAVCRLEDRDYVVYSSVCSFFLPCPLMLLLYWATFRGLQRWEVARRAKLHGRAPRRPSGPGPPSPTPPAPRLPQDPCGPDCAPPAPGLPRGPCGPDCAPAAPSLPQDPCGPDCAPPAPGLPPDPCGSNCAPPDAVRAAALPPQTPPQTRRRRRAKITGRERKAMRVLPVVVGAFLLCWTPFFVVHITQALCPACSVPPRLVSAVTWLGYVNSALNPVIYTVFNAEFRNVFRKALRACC

Row | SMILES | reversal of hyperactivity in DAT-KO mice (DAT knock-out (KO) mice [1]) | also measured
1 | CNCCC(Oc1ccc(C(F)(F)F)cc1)c1ccccc1 (stereo not drawn) [fluoxetine] | counteract the hyperactivity | reducing symptoms of ADHD [2]: effective in reducing symptoms of ADHD
2 | c1ccc2nc(N3CCNCC3)ccc2c1 [quipazine] | counteract the hyperactivity | 
3 | COC(=O)C(c1ccccc1)C1CCCCN1 (stereo not drawn) [methylphenidate] | can be reversed | 
4 | CC(=O)N1C[C@@H](CCN2CC=C(c3c[nH]c4cc(Cl)ccc34)CC2)c2ccccc21 [(S)-(+)-3-[1-[2-(1-acetyl-2,3-dihydro-1H-indol-3-yl)ethyl]-1,2,3,6-tetrahydropyridin-4-yl]-6-chloro-1H-indole] |  | effect in the DAT-KO mice model (DAT knock-out (KO) mice [3]): have effect in this model
5 | CC(=O)N1CC(CCN2CC=C(c3c[nH]c4cc(Cl)ccc34)CC2)c2ccccc21 (racemic) [3-[1-[2-(1-acetyl-2,3-dihydro-1H-indol-3-yl)ethyl]-1,2,3,6-tetrahydropyridin-4-yl]-6-chloro-1H-indole] |  | dopamine D4 ligand potency (dopamine D4 receptors): potent dopamine D4 ligand
6 | CC(N)Cc1ccccc1 (stereo not drawn) [amphetamine] | can be reversed | 
7 | N[C@@H](Cc1c[nH]c2ccc(O)cc12)C(=O)O [5-hydroxytryptophan] | counteract the hyperactivity | 
8 | N[C@@H](Cc1c[nH]c2ccccc12)C(=O)O [L-tryptophan] | counteract the hyperactivity | 
